The text below walks through data of publication PMC6331850, “Evaluation of the Cytotoxicity of Structurally Correlated p-Menthane Derivatives” (Molecules, 2015).

Series [1] deals with OVCAR-8 (ovarian adenocarcinoma). Kind of series: MTT cytotoxicity assay, OVCAR-8. The format is cell-based. The following applies: Homo sapiens, 25 μg/mL, 72 h incubation, mean of three independent experiments, read-out: Cell growth inhibition percentage, OVCAR-8 IG%. As for the experimental part: (§1) The cytotoxicity of the 18 compounds was tested against OVCAR-8 (ovarian adenocarcinoma), HCT-116 (colon carcinoma), SF-295 (glioblastoma), and HL-60 (leukemia) human cancer cell lines, all obtained from the National Cancer Institute, Bethesda, MD, USA. Cells were grown in RPMI-1640 medium supplemented with 10% fetal bovine serum, 2 mM glutamine, 100 µg/mL streptomycin, and 100 U/mL penicillin, and incubated at 37 °C in a 5% CO2 atmosphere.
(§2) Tumor cell growth was determined by the ability of living cells to reduce the yellow dye 3-(4,5-dimethyl-2-thiazolyl)-2,5-diphenyl-2H-tetrazolium bromide (MTT; Sigma Chemical Co., St. Louis, MO, USA) to a purple formazan product, as described by Mossman. For all experiments, cells were seeded in 96-well plates (0.1 × 10^6 cells/mL in 100 μL medium). After 24 h, the 18 compounds (25 μg/mL), were dissolved in 0.7% dimethyl sulfoxide (DMSO), and were added to each well (three independent experiments, performed in triplicate). Then, the cells were incubated for 72 h at 37 °C in a 5% CO2 atmosphere. The experiment was performed as three independent experiments, using DMSO at 1%, and doxorubicin at […] as negative and positive controls, respectively. Doxorubicin, purity >98%; Sigma Chemical Co.).
(§3) At the end of incubation, the plates were centrifuged, and the medium was replaced by fresh medium (150 μL) containing 0.5 mg/mL MTT. Three hours later, the formazan product was dissolved in 150 μL DMSO, and absorbance was measured using a multiplate reader (DTX 880 Multimode Detector, Beckman Coulter Inc., Packard, ON, Canada). The treatment effects were expressed as the percentage of control absorbance of reduced dye at 595 nm. All absorbance values were converted into a cell growth inhibition percentage (GI%) by the following formula: [GI% = 100 − [(T/C) × 100%] (1) where C is the absorbance for the negative control, and T is the absorbance in the presence of the tested compound. […]
For orientation: Tetrazolium dyes change colour on reduction, which living cells bring about.

The next series deals with SF-295 (glioblastoma). Kind of series: MTT cytotoxicity assay, SF-295. The format is cell-based. As to conditions: Homo sapiens, 25 μg/mL, 72 h incubation, mean of three independent experiments, read-out: Cell growth inhibition percentage, SF-295 IG%. As for the experimental part: as §1, §2, §3
For series [2], the system named is OVCAR-8, HCT-116, and SF-295 human tumor cell lines. Kind of series: MTT cytotoxicity assay, range over the three tumor cell lines. The class given is cell-based. The following applies: for inhibition at 25 µg/mL: read-out: GI, range over the three cell lines. The protocol:
as §1, §2
At the end of incubation, the plates were centrifuged, and the medium was replaced by fresh medium (150 μL) containing 0.5 mg/mL MTT. Three hours later, the formazan product was dissolved in 150 μL DMSO, and absorbance was measured using a multiplate reader (DTX 880 Multimode Detector, Beckman Coulter Inc., Packard, ON, Canada). The treatment effects were expressed as the percentage of control absorbance of reduced dye at 595 nm. All absorbance values were converted into a cell growth inhibition percentage (GI%) by the following formula: [GI% = 100 − [(T/C) × 100%] (1) where C is the absorbance for the negative control, and T is the absorbance in the presence of the tested compound.
The compounds that caused greater degree of cell growth inhibition and which have not been described in the literature for cytotoxic activity against tumor cell lines were evaluated for their median inhibitory concentration able to induce 50% of maximal effect (IC50). […] In addition, the IC50 was determined against HL-60 only for the most cytotoxic compound 16.

Series [3] concerns HCT-116 (colon carcinoma). As to the kind of experiment: MTT cytotoxicity assay, HCT-116. The class given is cell-based. The following applies: Homo sapiens, 25 μg/mL, 72 h incubation, mean of three independent experiments, read-out: Cell growth inhibition percentage, HCT-116 IG%. As for the experimental part: as §1, §2, §3
Series [4] relates to HL-60 cells. Kind of series: Morphological analysis by fluorescence microscopy (acridine orange/ethidium bromide). The class given is cell-based, human. The following applies: 24 h. The protocol:
HL-60 cells were pelleted and re-suspended in 20 µL of PBS. Then, 1 µL of aqueous acridine orange/ethidium bromide solution (AO/EB, 100 µg/mL) was added, and the cells were observed under a fluorescence microscope. Three hundred cells were counted per sample and classified as viable, apoptotic or necrotic.

In a further series the test system is HL-60 (leukemia). Kind of series: MTT cytotoxicity assay, HL-60. The class given is cell-based. The following applies: Homo sapiens, 72 h incubation, read-out: IC50 (95% confidence interval), HL-60. As for the experimental part:
as §1
Tumor cell growth was determined by the ability of living cells to reduce the yellow dye 3-(4,5-dimethyl-2-thiazolyl)-2,5-diphenyl-2H-tetrazolium bromide (MTT; Sigma Chemical Co., St. Louis, MO, USA) to a purple formazan product, as described by Mossman. […]
as §3

The test system of series [5] is HL-60 cells. Kind of series: Cell viability, trypan blue dye exclusion test. The format is cell-based, human. As to conditions: 0.32, 0.64, 1.28 µg/mL; 24 h incubation. The protocol: The cell viability was determined by the trypan blue dye exclusion test. HL-60 cells were seeded (0.3 × 10^6 cells/mL) in absence or presence of different concentrations of compound 16 (0.32, 0.64, and 1.28 µg/mL). After the incubation period of 24 h, 90 µL were removed from the cell suspension and added to 10 µL of trypan blue. Viable and non-viable cells were differentiated and counted in a Neubauer chamber.

Series [6] relates to HL-60 cells. As to the kind of experiment: Morphological analysis with hematoxylin-eosin staining. The class given is cell-based, human. The following applies: 0.32, 0.64, 1.28 µg/mL; 24 h incubation. As for the experimental part: For morphological cell analysis, we used hematoxylin-eosin and examined using light microscopy. HL-60 cells were seeded (0.3 × 10^6 cells/mL) in the absence or presence of different concentrations of compound 16 (0.32, 0.64 and 1.28 µg/mL). After an incubation period of 24 h, 50 µL of cell suspension were transferred to cytospin slides, fixed with metanol for 60 s, and stained with hematoxylin-eosin [43].

The test system of a further series is mouse erythrocytes. As to the kind of experiment: Hemolytic assay. As to conditions: up to highest tested concentration 500 μg/mL; data not shown. The class given is cell-based. The protocol: The test was performed in 96-well plates using a 2% mouse erythrocyte suspension in 0.85% NaCl containing 10 mm CaCl2, following the method as described by Jimenez and collaborators. Various concentrations of compound 16 (0–500 µg/mL) were added to the suspension of red blood cells obtained from mice according to methodology adapted from Kang and collaborators, Pita and collaborators, and Bezerra and collaborators. The tubes with the compound 16 erythrocyte mixtures were incubated on a mixer for 60 min and then centrifuged at 3000 rpm for 5 min. […] After incubation at room temperature for 30 min and centrifugation, the supernatant was removed and the liberated hemoglobin was measured spectrophotometrically as the absorbance at 540 nm.

Setting [7] is: Homo sapiens, 72 h, 25 µg/mL, MTT, 72 h, HCT-116, OVCAR-8, SF-295.

Converted amounts (≈) assume the structure as drawn. A value given as a limit tells only on which side of the number the result lay.

As for `C=C(C)[C@@H]1CCC2(C)OC2C1` (single isomer, unassigned; (+)) [Compound 12, (+)-Limonene 1,2-epoxide], the inhibition at 25 µg/mL in [1] is 93.1%; in the series with SF-295 (glioblastoma) it was 58.5%; in series [2] (setting [7]) it was less than 50%; in [3] it was 73.1%. Moreover, the “fold more cytotoxic than 5 (GI ratio)” value in series [2] (compared with (−)-carvone epoxide (5), 25 µg/mL) is on record as 2.5- to 11 fold.
Take `CC1=CC[C@@H](C(C)(C)O)CC1O` (single isomer, unassigned; (-)) [Compound 13, (−)-Sobrerol]: the inhibition at 25 µg/mL worked out at 41.4% in [1], 34.2% in the series with SF-295 (glioblastoma) and 9.78% in series [3].
By IC50 is commonly meant the concentration needed to halve the response being measured. Regarding `CC1([C@@H]2CC=C(C=O)CC2)CO1` (single isomer, unassigned; (-)) [Compound 16, (−)-Perillaldehyde 8,9-epoxide], the inhibition at 25 µg/mL in [1] was 96.3%; in the series with SF-295 (glioblastoma) it was 99.9%; in series [2] (setting [7]), 96.3 to 99.9%; in series [3] it was 98.6%. Also, the “cell death process, three concentrations tested” value in the series on HL-60 cells [4] (0.32, 0.64, 1.28 µg/mL, Figures 3 and 4) is given as “cell death by apoptosis”. For the same compound, in the series with HL-60 cells [4] (0.32, 0.64, 1.28 µg/mL, concentration-dependent, p < 0.05), the “cell morphology, acridine orange/ethidium bromide” value was “morphology consistent with apoptosis and necrosis”. Further, in the series with HL-60 cells [4] (doses of 0.64 and 1.28), the “cell death process at the higher doses” value is listed as “necrotic cell death”. Moreover, the concentration for half-maximal inhibition (IC50) was 0.64 µg/mL (≈ 3.85 µM) with HL-60 (leukemia) and 1.03 to 1.75 µg/mL (≈ 6.2 to 10.5 µM) in series [2] (Homo sapiens, MTT, 72 h, HCT-116, OVCAR-8, SF-295). Also, the “effect on number of viable / non-viable cells” value in the series on HL-60 cells [5] was “reduction in the number of viable cells”. The “cell morphology, hematoxylin-eosin” value in the series on HL-60 cells [6] is recorded as “morphology consistent with apoptosis”. The “hemolysis (lysis of mouse erythrocytes)” value with mouse erythrocytes is reported as “not hemolytic”.
As to `C=C(C)[C@@H]1CC=C(C)C(=O)C1` [Compound 1, (−)-Carvone], the values for the inhibition at 25 µg/mL (in [1]; in the series with SF-295 (glioblastoma); in series [3]) were 2.28%, 12.3% and 11.9%, respectively.
Regarding `C=C(C)[C@H]1CC=C(C)C(=O)C1` [Compound 2, (+)-Carvone], the inhibition at 25 µg/mL in series [1] is 48.1%; in the series on SF-295 (glioblastoma), 34.4%; in series [2] (setting [7]) it was less than 50%; in [3], 46.1%.
`CC1=CC[C@@H](C(C)(C)O)CC1=O` [Compound 3, (−)-8-Hydroxycarvotanacetone]: the inhibition at 25 µg/mL was 94% in [1], 61.6% in the series with SF-295 (glioblastoma), 61.6 to 94% in series [2] (setting [7]) and 75.2% in series [3]. Besides, the “GI, range over the three cell lines” value in [2] (25 µg/mL, MTT, 72 h, HCT-116, OVCAR-8, SF-295) was 61.59% to 94.01%.
Turning to `CC1=CC[C@H](C(C)(C)O)CC1=O` [Compound 4, (+)-8-Hydroxycarvotanacetone], the inhibition at 25 µg/mL in series [1] stood at 3.12%; in the series with SF-295 (glioblastoma), 16.4%; in series [3], 4.76%.
As for `C=C(C)[C@@H]1CC(=O)[C@@]2(C)O[C@H]2C1` [Compound 5, (−)-Carvone epoxide], the inhibition at 25 µg/mL was determined as 8.21% in [1], 10.9% with SF-295 (glioblastoma) and 29.2% in series [3].
In the same order, the values of `C=C(C)[C@@H]1C[C@H](O)[C@]2(C)O[C@@H]2C1` [Compound 6, (+)-Carveol epoxide] are 4.58%, 35.4% and 12.4%.
As for `C=C(C)[C@@H]1CC=C(C)[C@H](O)C1` [Compound 7, (−)-cis-carveol], the inhibition at 25 µg/mL in series [1] was 3.61%; in the series on SF-295 (glioblastoma) it was 21.2%; in [3], 9%.
In the same order, the values of `CC(=O)OC(C)(C)[C@@H]1CC=C(C)C(=O)C1` [Compound 8, (−)-8-Acetoxycarvotanacetone] are 1.62%, 30.5% and 10.4%.
On to `CC(C)=C1CC[C@@H](C)CC1=O` [Compound 9, (+)-Pulegone], for which the inhibition at 25 µg/mL in [1] was 14.4%; in the series on SF-295 (glioblastoma), 27.4%; in [3], 10.2%.
In the same order, the values of `C[C@@H]1CCC2(OC2(C)C)C(=O)C1` (stereo partly drawn) [Compound 10, (R)-pulegone oxide] are 17.6%, 16% and 43.2%.
In the same order, the values of `C=C(C)[C@@H]1CC[C@@H](C)CC1=O` [Compound 11, (−)-trans-isopulegone] are 5.98%, 7.56% and 19%.
As for `C=C(C)[C@@H]1CC=C(CO)CC1` [Compound 14, (S)-(−)-perillyl alcohol], the inhibition at 25 µg/mL in [1] was 91.7%; in the series on SF-295 (glioblastoma) it was 90.9%; in series [2] (setting [7]), 90.9 to 95.8%; in [3], 95.8%.
In the same order, the values of `C=C(C)[C@@H]1CC=C(C=O)CC1` [Compound 15, (−)-Perillaldehyde] are 70.2%, 59.3%, 59.3 to 83% and 83%.
Regarding `C=C(C)[C@@H]1CC=C(COC(C)=O)CC1` [Compound 17, (−)-Perillyl acetate], the inhibition at 25 µg/mL is 3.06% in series [1], 16.4% in the series on SF-295 (glioblastoma) and 14.2% in series [3].
Turning to `C=C(C)[C@@H]1CC=C(COC(=O)c2ccccc2)CC1` [Compound 18, (S)-perillyl benzoate], the inhibition at 25 µg/mL in series [1] was 2.86%; in the series with SF-295 (glioblastoma), 4.53%; in [3], 5.02%.
Take `COc1cccc2c1C(=O)c1c(O)c3c(c(O)c1C2=O)C[C@@](O)(C(=O)CO)C[C@@H]3O[C@H]1C[C@H](N)[C@H](O)[C@H](C)O1` [Doxorubicin, reference compound]: the inhibition at 25 µg/mL in series [1] came to 100%; with SF-295 (glioblastoma), 99.6%; in [3] it was 99.2%.
